Experimental findings from ChEMBL document CHEMBL3763009, “Discovery of antiviral molecules for dengue: In silico search and biological evaluation” (Eur J Med Chem, 2016) are described below.

Active and inactive are the calls of the source. No cut-off for these calls is given here.

A short description of series [1]: (§1) Inhibition of Dengue virus 2 recombinant 6xHis-tagged NS2B/NS3 serine protease using Boc-Gly-Arg-Arg-AMC as substrate measured for 60 mins by fluorimetric analysis. Also noted: species or system dengue virus type 2.
Series [2] concerns dengue virus type 2. Described as §1.
In series [3] the test system is dengue virus type 2. Briefly: Antiviral activity against Dengue virus 2 infected in human HepG2 cells assessed as reduction in NS1 level after 72 hrs by sandwich ELISA. Format: functional, organism-based. Conditions: HepG2, 72 h.
Series [4] relates to dengue virus type 2. Briefly: Antiviral activity against Dengue virus 2 infected in human HepG2 cells assessed as reduction in NS1 level at 49.2 uM administered 1 hr postinfection measured after 72 hrs by sandwich ELISA relative to control. It counts as functional. Also on record: scale not given: the % may be the effect or the level left.
The nature of series [5]: Cytotoxicity against human HepG2 cells assessed as cell viability after 72 hrs by MTT assay. It counts as cell-based.
Series [6] in a line: Selectivity index, ratio of CC50 for human HepG2 cells to IC50 for Dengue virus 2 infected in human HepG2 cells. Format: functional.
The subject of series [7] is dengue virus type 2. Briefly: Antiviral activity against Dengue virus 2 infected in human HepG2 cells assessed as reduction in NS1 level at 85.7 uM administered 1 hr postinfection measured after 72 hrs by sandwich ELISA relative to control. Format: functional. Also noted: scale not given: the % may be the effect or the level left.
In series [8] the test system is dengue virus type 2. The series can be described thus: Antiviral activity against Dengue virus 2 infected in human HepG2 cells assessed as reduction in NS1 level at 12.5 uM administered 1 hr postinfection measured after 72 hrs by sandwich ELISA relative to control. It counts as functional, organism-based.
Series [9] relates to HepG2. The series can be described thus: Cytotoxicity against human HepG2 cells assessed as reduction in cell viability up to 12.5 uM after 72 hrs by MTT assay. Format: cell-based. Conditions: hepg2, 72 h.
Series [10] relates to dengue virus type 2. Briefly: Antiviral activity against Dengue virus 2 infected in human HepG2 cells assessed as reduction in NS1 level at 9.8 uM administered 1 hr postinfection measured after 72 hrs by sandwich ELISA relative to control. It counts as functional. Also noted: scale not given: the % may be the effect or the level left.
Series [11] concerns dengue virus type 2. Briefly: Antiviral activity against Dengue virus 2 infected in human HepG2 cells assessed as reduction in NS1 level at 19.5 uM after 72 hrs by sandwich ELISA relative to control. Also noted: scale not given: the % may be the effect or the level left. Format: functional.
In series [12] the test system is dengue virus type 2. The series can be described thus: Antiviral activity against Dengue virus 2 infected in human HepG2 cells assessed as reduction in NS1 level at 13.5 uM administered 1 hr postinfection measured after 72 hrs by sandwich ELISA relative to control. Format: functional. Also on record: scale not given: the % may be the effect or the level left.
The test system of series [13] is HepG2. Briefly: Cytotoxicity against human HepG2 cells assessed as reduction in cell viability up to 100 uM after 72 hrs by MTT assay. Format: cell-based. Conditions: hepg2, 72 h.
The subject of series [14] is dengue virus type 2. Briefly: Antiviral activity against Dengue virus 2 infected in human HepG2 cells assessed as reduction in NS1 level at 100 uM administered 1 hr postinfection measured after 72 hrs by sandwich ELISA relative to control. Format: functional, organism-based.
The subject of series [15] is dengue virus type 2. Briefly: Antiviral activity against Dengue virus 2 infected in human HepG2 cells assessed as NS1 level at < maximum non-toxic concentration after 72 hrs by sandwich ELISA (reference value: 44.5 +/- 3.2 PbU). It counts as functional.

As for `COc1ccc(C(c2c(O)c3ccccc3oc2=O)c2c(O)c3ccccc3oc2=O)cc1COc1ccc(NC(C)=O)cc1`, the results for the concentration for half-maximal inhibition (IC50) in series [1] and in series [3] were 19.9 µM and 61.5 µM, respectively. For the same molecule, the inhibition result in [2] is “Dose-dependent effect”. Moreover, the Activity in series [4] is reported as 37%; in [7] it was 79.9%. In addition, the half-maximal cytotoxic concentration (CC50) at 72 h in [5] worked out at 162 µM. Besides, the “Ratio CC50/IC50” value in series [6] was found to be 2.6.
Take `O=c1oc2ccccc2c(O)c1C1c2ccccc2Oc2c1c(=O)oc1ccccc21` (centres undefined): in [1], the concentration for half-maximal inhibition (IC50) came out at 18.9 µM. Moreover, the inhibition result in series [2] is “Dose-dependent effect”. The result in [8] was inactive. Further, in series [9], the Activity result is “Non-toxic”.
Take `CC1(C)CC(=O)C2=C(C1)c1c(ccc3ccccc13)NC2c1ccc(-c2ccc(O)c(C(=O)O)c2)o1` (centres undefined): the values for the Activity in [10] and in series [11] were 15.5% and 69.8%, respectively. In addition, the values for the half-inhibitory concentration (IC50) in [1] and in series [3] were 17.5 µM and 14.9 µM, respectively. Moreover, the inhibition entry in series [2] was “Dose-dependent effect”. For the same molecule, in series [5], the CC50 at 72 h was found to be 58.6 µM. Also, in series [6], the “Ratio CC50/IC50” value was found to be 3.9.
`COc1ccc(C(c2c(O)c3ccccc3oc2=O)c2c(O)c3ccccc3oc2=O)cc1CSc1nc2ccccc2s1`: the figures for the concentration for half-maximal inhibition (IC50) in series [1] and in series [3] were 9.09 µM and 11.8 µM, respectively. Moreover, the inhibition result in [2] was “Dose-dependent effect”. Besides, in series [5], the CC50 at 72 h turned out to be 42.1 µM. For the same molecule, the “Ratio CC50/IC50” value in [6] is reported as 3.6. In addition, the Activity in [12] is given as 73.9%.
For `Cc1ccc2nc(-c3ccc(NC(=O)c4c(O)c5c(n(Cc6ccco6)c4=O)CCCC5)cc3)sc2c1`, the Activity result in series [13] is recorded as “Non-toxic”. Moreover, the IC50 in series [1] was determined as 608 µM. For the same molecule, the inhibition entry in series [2] was “Dose-dependent effect”. The outcome in [14] was inactive.
Turning to `NC(=O)c1ncn([C@@H]2O[C@H](CO)[C@@H](O)[C@H]2O)n1` [RIBAVIRIN], the Activity in series [15] was 8.3 PbU.
